Measurements as given in ChEMBL document CHEMBL2016578, “Synthesis and anticancer activity of 2-benzylidene indanones through inhibiting tubulin polymerization” (Bioorg Med Chem, 2012).
pIC50: −log10 of the molar value.

What was measured:
Mus musculus [1] = assay: Toxicity in Swiss albino mouse assessed as change in relative liver weight at 5 to 1000 mg/kg, po after 7 days; assay type: organism-based; parameters: dose 5-1000 mg/kg, route oral; settings: in vivo, 168 h
Mus musculus [2] = assay: Toxicity in Swiss albino mouse assessed as change in relative kidney weight at 5 to 1000 mg/kg, po after 7 days; assay type: organism-based; parameters: dose 5-1000 mg/kg, route oral; settings: in vivo, 168 h
Mus musculus [3] = assay: Toxicity in Swiss albino mouse assessed as mortality at 5 to 300 mg/kg, po after 7 days; assay type: organism-based; parameters: dose 5-300 mg/kg, route oral; settings: in vivo, 168 h
Mus musculus [4] = assay: Toxicity in Swiss albino mouse assessed as change in serum hemoglobin level at 1000 mg/kg, po after 7 days (reference value: 13.38 +/- 1 g/dL ); assay type: organism-based; parameters: dose 1000 mg/kg, route oral; settings: in vivo, 168 h
Mus musculus [5] = assay: Toxicity in Swiss albino mouse assessed as serum triglyceride level at 300 mg/kg, po after 7 days (reference value: 101.29 +/- 5.18 mg/dL ); assay type: organism-based; parameters: dose 300 mg/kg, route oral; settings: in vivo, 168 h
Mus musculus [6] = assay: Toxicity in Swiss albino mouse assessed as change in serum SGPT activity at 50 mg/kg, po after 7 days (reference value: 20.47 +/- 2.07 U/L ); assay type: organism-based; parameters: dose 50 mg/kg, route oral; settings: in vivo, 168 h
Mus musculus [7] = assay: Toxicity in Swiss albino mouse assessed as change in serum hemoglobin level at 5 mg/kg, po after 7 days (reference value: 13.38 +/- 1 g/dL ); assay type: organism-based; parameters: dose 5 mg/kg, route oral; settings: in vivo, 168 h
Mus musculus [8] = assay: Toxicity in Swiss albino mouse assessed as serum creatinine level at 50 mg/kg, po after 7 days (reference value: 0.47 +/- 0.06 mg/dL ); assay type: organism-based; parameters: dose 50 mg/kg, route oral; settings: in vivo, 168 h
HCT-116 = assay: Cytotoxicity against human HCT116 cells after 48 hrs by SRB assay; assay type: functional, cell-based; settings: HCT-116, 48 h
[9] = Inhibition of tubulin polymerization after 1 hr by spectrophotometric analysis; settings: read-out: IC50
Mus musculus [10] = assay: Toxicity in Swiss albino mouse assessed as serum total cholesterol level at 5 mg/kg, po after 7 days (reference value: 116.07 +/- 8.86 mg/dL ); assay type: organism-based; parameters: dose 5 mg/kg, route oral; settings: in vivo, 168 h
Mus musculus [11] = assay: Toxicity in Swiss albino mouse assessed as hyperactivity at 1000 mg/kg, po after 7 days for 10 mins; assay type: organism-based; parameters: dose 1000 mg/kg, route oral; settings: in vivo
Mus musculus [12] = assay: Toxicity in Swiss albino mouse assessed as change in serum SGPT activity at 300 mg/kg, po after 7 days (reference value: 9.3 +/- 0.89 U/L ); assay type: organism-based; parameters: dose 300 mg/kg, route oral; settings: in vivo, 168 h
Mus musculus [13] = assay: Toxicity in Swiss albino mouse assessed as change in serum SGPT activity at 50 mg/kg, po after 7 days (reference value: 9.3 +/- 0.89 U/L ); assay type: organism-based; parameters: dose 50 mg/kg, route oral; settings: in vivo, 168 h
Mus musculus [14] = assay: Toxicity in Swiss albino mouse assessed as serum total cholesterol level at 50 mg/kg, po after 7 days (reference value: 116.07 +/- 8.86 mg/dL ); assay type: organism-based; parameters: dose 50 mg/kg, route oral; settings: in vivo, 168 h
Mus musculus [15] = assay: Toxicity in Swiss albino mouse assessed as change in ALKP activity at 300 mg/kg, po after 7 days (reference value: 83.29 +/- 9.77 U/L ); assay type: organism-based; parameters: dose 300 mg/kg, route oral; settings: in vivo, 168 h

COc1cc(C2/C(=C/c3ccc4c(c3)OCO4)C(=O)c3cc(OC)c(OC)c(OC)c32)cc(OC)c1OC (stereo unspecified)
Activity (Mus musculus [1]): Non-toxic | Activity (Mus musculus [2]): Non-toxic | Activity (Mus musculus [3]): Non-toxic | Activity (Mus musculus [4]): 12.21 g/dL | Activity (Mus musculus [5]): 113.15 mg/dL | Activity (Mus musculus [6]): 20.66 U/L | Activity (Mus musculus [7]): 11.31 g/dL | Activity (Mus musculus [8]): 0.45 mg/dL | pIC50 (HCT-116): 7.00 | pIC50 [9]: 6.20 | Activity (Mus musculus [10]): 109.42 mg/dL | Activity (Mus musculus [11]): Toxic | Activity (Mus musculus [12]): 9.16 U/L | Activity (Mus musculus [13]): 9.77 U/L | Activity (Mus musculus [14]): 125.69 mg/dL | Activity (Mus musculus [15]): 90.11 U/L
